Assay [1] deals with P388/ADR cell lines (overexpress the multidrug resistance pump MDR-1). Nature of the assay: Multidrug resistant cell assay, cell viability by ATP-lite. Format: cell-based, murine. The text has this:
Cytotoxicity of compounds in multidrug resistant cells can be determined by administering compounds to cell lines that overexpress the multidrug resistance pump MDR-1 and determining the viability of the cell lines. P388/ADR cell lines are known to overexpress the multidrug resistance pump MDR-1 (also known as P-glycoprotein-1; Pgp-1).
P388/ADR cell lines are obtained from American Type Culture Collection (Manassas, Va.) and maintained in RPMI-1640 media supplemented with 10% FCS, 10 units/mL penicillin and streptomycin, 2 mM Glutamax and 1 mM sodium pyruvate (Invitrogen Corporation, Carlsbad, Calif.). For compound testing, cells are plated in 96 well dishes at a concentration of 1.5×10^4 cells/well. Cells are allowed to adhere to the plate overnight and then incubated with compounds at final concentrations ranging from 0.13 nM to 10 μM for 72 hours. Cell viability is then assessed using the ATP-lite reagent (Perkin Elmer, Foster City, Calif.). Plates are read on a Wallac Topcount luminescence reader (Perkin Elmer, Foster City, Calif.) and the results graphed in Prism software (Graphpad Software, Inc., San Diego, Calif.). Non-linear regression with variable slope analysis is performed to obtain IC50 concentration values.

In assay [2] the test system is P388 murine leukemia cell line. The experiment in a line: P388 cytotoxicity, cellular viability by ATP-Lite. In kind it is cell-based. Conditions: Mus musculus, P388, 72 h, compound concentration required to inhibit growth by 50%, intracellular ATP. The protocol: A P388 murine leukemia cell line was obtained from NCI, Frederick, Md. P388 cells were cultured in RPMI-1640 supplemented with 10% fetal bovine serum, 2 mM Glutamax, 1 mM sodium pyruvate, 0.1 mM non-essential amino acids and 10 mM HEPES. Cells were grown at 37° C. in a humidified 5% CO2 atmosphere. Exponentially growing P388 cells were plated at 5,000 cells/well in a 96-well flat-bottomed microtiter plate (Corning, Costar #3595). […] Cellular viability was determined 72 hours later by measuring intracellular ATP with ATP-Lite assay system. The effect of compounds on cell viability was calculated by comparing the ATP levels of cells exposed to test compound with those of cells exposed to DMSO. A semi-log plot of relative ATP levels versus compound concentration was used to calculate the compound concentration required to inhibit growth by 50% (IC50). Data was analyzed by Prism software (GraphPad; San Diego, Calif.) by fitting it to a sigmoidal dose response curve.

[3] abbreviates: Mus musculus, 72 h, multidrug resistant cells overexpressing MDR-1.

Molecules are shown by their SMILES.

As a reminder, the IC50 is the midpoint of a concentration-inhibition curve. Read a low IC50 as higher potency.

Regarding `COc1ccc(N(C)c2nc(NCCNC(=O)CN)nc3ccccc23)cc1` [Example 41, 2-Amino-N-(2-{4-[(4-methoxy-phenyl)-methyl-amino]-quinazolin-2-ylamino}-ethyl)-acetamide], the IC50 in assay [1] (setting [3]) stood at 5300 nM; in assay [2] it was 1700 nM.
Regarding `COc1ccc(N(C)c2nc(OCCN3CCN(CCO)CC3)nc3ccccc23)cc1` [Example 5, 2-[4-(2-{4-[(4-Methoxy-phenyl)-methyl-amino]-quinazolin-2-yloxy}-ethyl)-piperazin-1-yl]-ethanol], in assay [2], the 50% inhibitory concentration (IC50) was determined as 3600 nM.
On the same count and under the same terms, under `COc1ccc(N(C)c2nc(NCCNC(N)=O)nc3ccc(OC)cc23)cc1` [Example 22, (2-{6-Methoxy-4-[(4-methoxy-phenyl)-methyl-amino]-quinazolin-2-ylamino}-ethyl)-urea] stands 9300 nM.
Turning to `COC(=O)NCCNc1nc(N(C)c2ccc(OC)cc2)c2cc(C)ccc2n1` [Example 30, (2-{4-[(4-Methoxy-phenyl)-methyl-amino]-6-methyl-quinazolin-2-ylamino}-ethyl)-carbamic acid methyl ester], the results for the IC50 in assay [1] (setting [3]) and in assay [2] were 160 nM and 85 nM, respectively.
Taken in the same sequence, the figures for `CNC(=O)NCCNc1nc(N(C)c2ccc(OC)cc2)c2cc(OC)ccc2n1` [Example 37, 1-(2-{6-Methoxy-4-[(4-methoxy-phenyl)-methyl-amino]-quinazolin-2-ylamino}-ethyl)-3-methyl-urea] were 6600 nM and 4700 nM.
Consider `COc1ccc(N(C)c2nc(N[C@@H](C)C(=O)OC(C)(C)C)nc3ccccc23)cc1` [Example 28, (S)-2-{4-[(4-Methoxy-phenyl)-methyl-amino]-quinazolin-2-ylamino}-propionic acid tert-butyl ester], for which the IC50 in assay [1] (setting [3]) was 170 nM; in assay [2], 150 nM.
As to `COc1ccc(N(C)c2nc(CNC(=O)OCc3ccccc3)nc3ccccc23)cc1` [Example 47, {4-[(4-Methoxy-phenyl)-methyl-amino]-quinazolin-2-ylmethyl}-carbamic acid benzyl ester], the figures for the half-inhibitory concentration (IC50) in assay [1] (setting [3]) and in assay [2] were 27 nM and 23 nM, respectively.
Taken in the same sequence, the figures for `COc1ccc(N(C)c2nc(NCCCN(C)c3nc(N(C)c4ccc(OC)cc4)c4ccccc4n3)nc3ccccc23)cc1` [Example 48, 3-{4-[(4-Methoxy-phenyl)-methyl-amino]-quinazolin-2-ylamino}-1-({4-[(4-methoxy-phenyl)-methyl-amino]-quinazolin-2-yl}-methyl-amino)-propane] were 83 nM and 70 nM.
For `COc1ccc(N(C)c2nc(CNC(=O)OC(C)OC(=O)C(C)C)nc3ccccc23)cc1` (stereo not shown) [Example 49, Isobutyric acid 1-{4-[(4-methoxy-phenyl)-methyl-amino]-quinazolin-2-ylmethylcarbamoyloxy}-ethyl ester], in that order: 13 nM and 5.5 nM.
Taken in the same sequence, the figures for `COc1ccc(N(C)c2nc(CNC(=O)[C@H](CC(N)=O)NC(=O)OC(C)(C)C)nc3ccccc23)cc1` [Example 51, [(S)-2-Carbamoyl-1-({4-[(4-methoxy-phenyl)-methyl-amino]-quinazolin-2-ylmethyl}-carbamoyl)-ethyl]-carbamic acid tent-butyl ester] were 970 nM and 620 nM.
As to `COc1ccc(N(C)c2nc(NCCOC(=O)[C@@H](N)CC(N)=O)nc3ccccc23)cc1` [Example 33, (S)-2-Amino-succinamic acid 2-{4-[(4-methoxy-phenyl)-methyl-amino]-quinazolin-2-ylamino}-ethyl ester], the IC50 in assay [1] (setting [3]) is 18 nM; in assay [2], 17 nM.
For `COc1ccc(N(C)c2nc(NCCOC(=O)[C@H](N)Cc3c[nH]c4ccccc34)nc3ccccc23)cc1` [Example 35, (R)-2-Amino-3-(1H-indol-3-yl)-propionic acid 2-{4-[(4-methoxy-phenyl)-methyl-amino]-quinazolin-2-ylamino}-ethyl ester], in that order: 240 nM and 220 nM.
Compound `COc1ccc(N(C)c2nc(NCCOP(=O)(OC(C)(C)C)OC(C)(C)C)nc3ccccc23)cc1` [Example 10, Phosphoric acid di-tent-butyl ester 2-{4-[(4-methoxy-phenyl)-methyl-amino]-quinazolin-2-ylamino}-ethyl ester] showed an IC50 in assay [1] (setting [3]) of 380 nM.
Take `CCOC(=O)C1C=CC(C)n2c(=O)n(CCNc3nc(N(C)c4ccc(OC)cc4)c4ccccc4n3)c(=O)n21` (stereo not shown) [Example 6, 2-(2-{4-[(4-Methoxy-phenyl)-methyl-amino]-quinazolin-2-ylamino}-ethyl)-8-methyl-1,3-dioxo-2,3,5,8-tetrahydro-1H-[1,2,4]triazolo[1,2-a]pyridazine-5-carboxylic acid ethyl ester]: the IC50 in assay [1] (setting [3]) came out at 3500 nM; in assay [2] it was 3000 nM.
Regarding `COc1ccc(N(C)c2nc(CNC(=O)[C@H](C)NC(=O)OC(C)(C)C)nc3ccccc23)cc1` [Example 50, [(S)-1-({4-[(4-Methoxy-phenyl)-methyl-amino]-quinazolin-2-ylmethyl}-carbamoyl)-ethyl]-carbamic acid tent-butyl ester], the IC50 is 190 nM in assay [1] (setting [3]) and 180 nM in assay [2].
With `COc1ccc(N(C)c2nc(N[C@@H](CO)c3ccccc3)nc3ccccc23)cc1` [Example 23, (R)-2-{4-[(4-Methoxy-phenyl)-methyl-amino]-quinazolin-2-ylamino}-2-phenyl-ethanol], the IC50 in assay [1] (setting [3]) worked out at 3300 nM; in assay [2], 4600 nM.
Taken in the same sequence, the figures for `COc1ccc(N(C)c2nc(CNC(=O)Oc3ccccc3)nc3ccc(F)cc23)cc1` [Example 43, {6-Fluoro-4-[(4-methoxy-phenyl)-methyl-amino]-quinazolin-2-ylmethyl}-carbamic acid phenyl ester] were 5.7 nM and 7.2 nM.
Taken in the same sequence, the figures for `CCOCCOCCOCCOc1nc(N(C)c2ccc(OC)cc2)c2ccccc2n1` [Example 7, (2-{2-[2-(2-Ethoxy-ethoxy)-ethoxy]-ethoxy}-quinazolin-4-yl)-(4-methoxy-phenyl)-methyl-amine] were 520 nM and 1400 nM.
Taken in the same sequence, the figures for `COc1ccc(N(C)c2nc(NCCOC(=O)CN)nc3ccccc23)cc1` [Example 13, Amino-acetic acid 2-{4-[(4-methoxy-phenyl)-methyl-amino]-quinazolin-2-ylamino}-ethyl ester] were 18 nM and 15 nM.
Take `COc1ccc(N(C)c2nc(N(CCNC(C)=O)C(C)=O)nc3ccccc23)cc1` [Example 39, N-[2-(Acetyl-{4-[(4-methoxy-phenyl)-methyl-amino]-quinazolin-2-yl}-amino)-ethyl]-acetamide]: 3800 nM corresponded to half-maximal inhibition in assay [2] (IC50).
Turning to `COC(=O)NCCNc1nc(N(C)c2ccc(OC)cc2)c2ccccc2n1` [Example 38, (2-{4-[(4-Methoxy-phenyl)-methyl-amino]-quinazolin-2-ylamino}-ethyl)-carbamic acid methyl ester], the IC50 in assay [1] (setting [3]) turned out to be 53 nM; in assay [2], 19 nM.
With `COc1ccc(N(C)c2nc(NCCNC(C)=O)nc3ccc(C)cc23)cc1` [Example 18, N-(2-{4-[(4-Methoxy-phenyl)-methyl-amino]-6-methyl-quinazolin-2-ylamino}-ethyl)-acetamide], the IC50 in assay [1] (setting [3]) worked out at 2500 nM; in assay [1] (multidrug resistant cells overexpressing MDR-1, 72 hours), 1400 nM.

Source of the values: patent US20100068197A1, “PHARMACEUTICAL COMPOUNDS AS INHIBITORS OF CELL PROLIFERATION AND THE USE THEREOF” (Myriad Pharmaceuticals, Inc., priority 2008, published 2010).
